Here are results for 3 compounds from patent US20230346769A1, “USE OF SIMPLE ACYCLIC POLYAMINES FOR THE TREATMENT OF DISEASES CAUSED BY PARASITES OF THE GENUS LEISHMANIA” (Universidad De Granada, priority 2020, published 2023).

The test system of assay [1] is intracellular forms of L.infantum in J774.2 macrophages. The assay can be described thus: Infection rate and parasite growth in infected macrophage cultures. In kind it is cell-based, Leishmania infantum. As to conditions: compound at IC25, 10 days. On the procedure:
(§1) Methodology: Macrophages of the J774.2 line preserved in the laboratory of the present inventors by cryopreservation at -80° C. and successive runs in MEM+Glutamine + 20% SBFI medium were used, which were deposited in a […] tube and centrifuged at 100 g for 5 minutes. The supernatant was discarded and the cells were resuspended in medium corresponding to a final concentration of 1×10^6 cells/ml. Subsequently, 10 μl of the cell suspension was deposited into each well of a 24-well culture plate each with a 10 mm diameter round slide. A final volume of 500 μl was completed with the culture medium and incubated for 24 h at 37° C. in humid atmosphere with 5% CO2. […] The non-phagocytic parasites and products were removed by washing and the infected cultures were maintained for 10 days in fresh medium added every 48 hours. The activity of the compounds was determined by the percentage of infected cells and the number of amastigotes per infected cell. Finally, the cultures were fixed and stained with methanol and Giemsa.

Assay [2] relates to intracellular forms of L.braziliensis in J774.2 macrophages. The assay is described as above. In kind it is cell-based, Leishmania braziliensis. As to conditions: compound at IC25, 10 days. On the procedure: as §1
The test system of assay [3] is intracellular forms of L.donovani in J774.2 macrophages. The description is as above. The conditions noted are these: compound at IC25, 10 days. The format is cell-based, Leishmania donovani. As to the method: as §1
Assay [4] concerns FeSOD of the promastigote forms of L.braziliensis. The assay can be described thus: In vitro inhibition of FeSOD (NBT reduction). The format is biochemical, Leishmania braziliensis. As to the method: (§2) Methodology: Compounds that were selected from the leishmanicidal activity shown in previous experiments were evaluated as inhibitors of FeSOD enzyme activity, which is unique to the kinetoplastid parasites to which Leishmania belongs. Being exclusive, it is absent in the vertebrate host, since these usually have an analogous form of that enzyme, but complexed to a copper or zinc atom (Cu/ZnSOD). For this reason, this enzyme is a therapeutic target for the design of new drugs, since the capture of the metal ion by complexing mechanisms can inactivate the enzyme and compromise the survival of the parasite with the appearance of free radicals.
(§3) Inhibition caused by the novel compounds on FeSOD/ Cu-Zn SOD activity was quantified on the spectrophotometer at 560 nm according to the technique described by [W F. Beyer. I. Fridovich. Anal Biochem. 1987. […]
(§4) Briefly, the cultured parasites as described in Example 1 underwent centrifugation, the pellet was resuspended (0.5 - 0.6 g/ml) in 3 ml of STE buffer (0.25 M. Tris-HCI 25 mM sucrose. 1 M EDTA. pH 7.8) and underwent 3 cycles of sonication from 30 s at 60 V. Then, it was centrifuged at 1500 g for 10 min at 4° C. and the pellet was washed 3 times with ice-cooled STE buffer. […] Protein concentrations were determined by means of the Bradford method (Sigma-Aldrich) using bovine serum albumin as standard. […]

The test system of assay [5] is FeSOD of promastigote forms of L.donovani. The assay can be described thus: In vitro inhibition of FeSOD (NBT reduction). In kind it is biochemical, Leishmania donovani. On the procedure: as §2, §3, §4
For assay [6], the system named is L.braziliensis promastigotes. Kind of assay: Alteration of production and excretion of metabolites (1H NMR). In kind it is cell-based, Leishmania braziliensis. The conditions noted are these: compound at IC25, 72 h; for Succinate production: versus control. On the procedure: (§5) Methodology: Promastigotes from the three species studied were used for this study. They were left to grow in a culture flask and subsequently transferred to a 25 ml capacity conical bottom flask (steriling) so that there were 5×10^4 parasites/ml in each one. The amount of compound needed to reach IC25 of each product was added and completed with fresh culture medium to reach a final volume of 3 ml and incubated at 28° C. for 72 h. After that time, the flasks were centrifuged at 400 g for 10 minutes, and 2 ml of supernatant was transferred to Eppendorf® tubes. Next, they were analysed using proton nuclear resonance and the spectra were analysed with the Mestre Nova® software to obtain the metabolite production and excretion graphs. From these graphs, it can be inferred which enzyme has seen its activity altered by action of the compounds, depending on the increase or decrease of the metabolite produced by it.
(§6) Both the decrease and increase in the metabolites analysed can be positive effects, indicating a malfunctioning of the metabolic pathway.

Another assay concerns L.donovani promastigotes. Described as above. In kind it is cell-based, Leishmania donovani. As to conditions: compound at IC25, 72 h. As to the method:
as §5, §6

A further assay concerns Leishmania donovani. Kind of assay: Mitochondrial membrane potential by rhodamine staining and flow cytometry. As to conditions: L.donovani, compound at IC25, 72 h. In kind it is cell-based. As to the method: Methodology: Similar to the assay of Example 5, an amount of 5×10^4 parasites/ml of Leishmania donovani was re-treated with the IC25 of compounds 2 and 4, this time in a final volume in the 5 ml steriling conical bottom flasks. Again, after 72 h of incubation under the same conditions as described in Example 5, the flasks were centrifuged at 400 g for 10 minutes and the pellet was washed by resuspending with PBS three times. The pellet was resuspended with 0.5 mL of PBS with 10 µg/mL rhodamine after the last wash. A cytometry analysis was performed after 20 minutes of action of the rhodamine.
(In general: Flow cytometry measures light scatter and fluorescence of single cells or particles in a stream.)

Assay [7] has as its target T1, CuZnSOD of human erythrocytes (Homo sapiens, UniProt P00441).
T1 construct: the Cu/Zn-superoxide dismutase of human red blood cells from Boehringer Mannheim was used; purchased Boehringer Mannheim; host or cells: human red blood cells (erythrocytes)
The assay can be described thus: In vitro inhibition of CuZnSOD (NBT reduction). In kind it is biochemical. From the text:
To conduct this assay, the Cu/Zn-superoxide dismutase of human red blood cells from Boehringer Mannheim was used, whilst the coenzymes and substrates were obtained from Sigma-Aldrich.
Inhibition caused by the novel compounds on FeSOD/ Cu-Zn SOD activity was quantified on the spectrophotometer at 560 nm according to the technique described by [W F. Beyer. I. Fridovich. Anal Biochem. 1987. 161: 559-66] based on the determination of the reduction of NBT (nitro blue tetrazolium) by superoxide ions and which the group of the present inventors has developed for the assay in trypanosomatides, being a routine technique in the laboratory of said group [F. Luque. et. al. Comp. Biochem. Physiol. C Toxicol. Pharmacol. 2000. […]
Briefly, the cultured parasites as described in Example 1 underwent centrifugation, the pellet was resuspended (0.5 - 0.6 g/ml) in 3 ml of STE buffer (0.25 M. Tris-HCI 25 mM sucrose. 1 M EDTA. pH 7.8) and underwent 3 cycles of sonication from 30 s at 60 V. Then, it was centrifuged at 1500 g for 10 min at 4° C. and the pellet was washed 3 times with ice-cooled STE buffer. […] Protein concentrations were determined by means of the Bradford method (Sigma-Aldrich) using bovine serum albumin as standard. […] A first measurement of the absorbance at 560 nm was made on a spectrophotometer and, after 10 minutes under light and under stirring conditions, the absorbance was re-determined. […]

The test system of the next assay is L.infantum promastigotes. Kind of assay: Alteration of production and excretion of metabolites (1H NMR). The format is cell-based, Leishmania infantum. The conditions noted are these: compound at IC25, 72 h, versus control. On the procedure:
as §5, §6

“Also recorded” adds a separate entry of the source.

T1 sequence (P00441 whole entry): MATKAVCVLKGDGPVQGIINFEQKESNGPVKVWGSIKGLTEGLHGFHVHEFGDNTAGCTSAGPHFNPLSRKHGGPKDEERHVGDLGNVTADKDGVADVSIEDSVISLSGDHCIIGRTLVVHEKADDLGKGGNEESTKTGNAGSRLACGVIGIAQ

As for `CNCCNCc1cccnc1` [Compound 2, 1-{3-pyridyl)-2,5-diazahexane], the “Number of amastigotes per infected cell” value in [1] is “lowest values over time”; in assay [2], “lowest values over time; also recorded: effective by decreasing”; in assay [3], “lowest values over time; also recorded: effective by decreasing”. For the same compound, the entries for the “Percentage of infection (infection rate)” value in [1], in [2] and in assay [3] were “lowest values over time”, “lowest values over time; also recorded: effective by decreasing” and “lowest values over time; also recorded: effective by decreasing”, respectively. Further, in assay [4], the “Concentration for 50% inhibition (IC50) of FeSOD of L.braziliensis” value is on record as “showed ability to inhibit FeSOD”. In addition, the “Concentration for 50% inhibition (IC50) of FeSOD of L.donovani” value in [5] is recorded as “lower than that necessary for the enzyme of human erythrocytes; also recorded: showed ability to inhibit FeSOD; also recorded: low IC50 value”. The figures for the “Production and excretion of metabolites (metabolism, other metabolites analysed)” value (in [6]; in the assay with L.donovani promastigotes) were “practically does not alter the other metabolites analysed” and “all the metabolites analysed increase”, respectively. For the same compound, the Succinate production result is recorded as “a certain increase of succinate” in assay [6] and “increase in succinate production” in the assay with L.donovani promastigotes (versus control). The “Effect on mitochondrial membrane potential” value in the assay with Leishmania donovani was “only a slight depolarisation”.
In the case of `CN(C)CCNCc1ccccn1` [Compound 4, 1-(2-pyridyl)-5-methyl-2,5-diazahexane], the “Number of amastigotes per infected cell” value in assay [1] is “better (lower) than those obtained with compound 5”; in [2], “effective by decreasing”; in assay [3] it was “effective by decreasing”. For the same compound, the “Percentage of infection (infection rate)” value is recorded as “lower infection rate on day 10” in assay [1], “effective by decreasing” in [2] and “effective by decreasing” in assay [3]. The “Concentration for 50% inhibition (IC50) of FeSOD of L.braziliensis” value in assay [4] is given as “lower than that necessary for the enzyme of human erythrocytes; also recorded: showed ability to inhibit FeSOD”. Moreover, the “Concentration for 50% inhibition (IC50) of FeSOD of L.donovani” value in assay [5] was “lower than that necessary for the enzyme of human erythrocytes; also recorded: showed ability to inhibit FeSOD”. Moreover, the “Concentration for 50% inhibition (IC50) of CuZnSOD of human erythrocytes” value in [7] was “high IC50 value”. For the same compound, the Succinate production entry (with L.infantum promastigotes; in assay [6]) was “increase in succinate production” in each case. Further, the “Production and excretion of metabolites (metabolism, other metabolites analysed)” value in assay [6] was “decrease of the remaining metabolites analysed”. Besides, the “Effect on mitochondrial membrane potential” value with Leishmania donovani is recorded as “only a slight depolarisation”.
`CN(C)CCNCc1cccnc1` [Compound 5, 1-{3-pyridyl}-5-methyl-2,5-diazahexane]: the “Percentage of infection (infection rate)” value in assay [1] is given as “lower infection rates than compound 4 until 8 days had elapsed”.
